Patent publication US20130231312A1, “TREATMENT OF TYPE II DIABETES AND DIABETES-ASSOCIATED DISEASES WITH SAFE CHEMICAL MITOCHONDRIAL UNCOUPLERS” (priority 2010, published 2013)

Experiments:
[1] = test system: C57/B16 mice fed with high-fat diet; assay: Chronic oral CSAA treatment of high-fat diet induced pre-diabetic mice; type: in vivo, mouse
From the text: (§1) The 5-week old db/db mice and the C57/B16 mice were purchased from Jackson Laboratory and housed in the vivarium of UMDNJ-RWJMS. […] For food intake experiments, sets of mice were housed individually in metabolic cages (Nalgene) with free access to food and water. Food cups and food scattered in the runway to the cups were weighed daily to determine food intake. For mouse tissue studies, mice were sacrificed by decapitation, and the tissues of interesting were obtained.
(§2) Blood glucose was determined using OneTouch UltraSmart blood glucose monitoring system (Lifescan), and the insulin levels were measured by ultra sensitive mouse insulin ELISA kit (Crystal Chem Inc.), following the manufacturer's instructions.

C57/B16 mice = assay: Glucose uptake assay with 3H 2-deoxyglucose in tissues; type: in vivo; details: acute 100 microgram/mouse I.P., 3H-2-deoxyglucose 1.5 hours later
Protocol: 1.5 hours later, ^3H-2-deoxyglucose (0.5 microcurrie/gram of body weight) was injected through I.P. route. 30 minutes later, mice were treated with anesthetics and perfused with PBS. Mice were then sacrificed and tissue was extracted for measurement of ^3H-2-deoxyglucose accumulation (normalized against tissue mass).

hepatocytes = details: high-fat diet containing 1500 ppm CSAA for 10 weeks
From the text: For mouse liver histological study, the mice sacrificed by decapitation. Liver slices were fixed with buffered formalin (Surgipath Medical Industries, Inc.) and embedded in paraffin. Tissue slides were stained with hematoxylin and eosin (H&E) for detection of lipid droplets in tissue samples. Pictures were taken with a Universal Microscope Axioplan 2 imaging system (Carl Zeiss) with phase contrast objectives.

db/db mice [2] = assay: Chronic oral CSAA treatment of db/db diabetic mice; type: in vivo, mouse
From the text: as §1, §2

AMPK [3] = assay: Immunoblotting of phosphorylated AMPK in liver after acute I.P. CSAA; type: in vivo; details: mouse liver, acute 100 microgram/mouse I.P., 0, 2, 4 hours
Protocol: (§3) Immunoblotting assays were carried out according to standard protocol. The sources of the antibodies are: AMPK antibody (Cell Signaling Technology), Thr-172-phosphorylated AMPK antibody (Cell Signaling Technology), Ran antibody (C-20, Santa Cruz).

NIH-3T3 cells [4] = assay: Mitochondrial membrane potential (TMRE staining) in cultured cells; type: cell-based, mouse
Protocol: For mitochondrial uncoupling activity analysis with the cultured cells, the NIH-3T3 were culture to 90% confluence. […] The cells were then treated with TMRE (Tetramethylrhodamine ethyl ester perchlorate) to a final concentration of 100 nM, incubate for 15 minutes. The cells were then washed twice with PBS, and the pictures were taken under microscope.

AMPK [5] = assay: Immunoblotting of phosphorylated AMPK in liver after chronic oral CSAA; type: in vivo, mouse; details: mice under high-fat diet
Protocol: as §3

[6] = test system: high-fat diet induced pre-diabetic C57/B16 mice; assay: Acute I.P. treatment, blood glucose in high-fat diet induced pre-diabetic mice; type: in vivo; details: 100 microgram/mouse I.P., starved 5 hours
From the text: as §1, §2

db/db mice [7] = assay: Acute I.P. CSAA treatment, blood glucose in diabetic db/db mice; type: in vivo; details: 100 microgram/mouse I.P.
From the text: as §1, §2

[8] = test system: mitochondria isolated from mouse liver; assay: Mitochondrial uncoupling assay with isolated mitochondria (oxygen consumption, Oxygraph); type: biochemical; details: oligomycin 5 μg/ml
Protocol: For mitochondrial uncoupling assay with isolated mitochondria: Mitochondria were isolated from mouse liver. 1.0 mg of mitochondria in a volume of 0.9 ml of respiration buffer was analyzed for oxygen consumption in the presence of mitochondrial substrate as well as the various inhibitors with an Oxygraph System (Hansatech Instrument, Norfolk, UK). The final concentrations of the various chemicals added into the respiration buffer are as follows: succinate, 5 mM; ADP, 125 μM; oligomycin, 5 μg/ml; KCN, 2 mM)

NIH-3T3 cells [9] = assay: Cellular ATP concentrations (ENLITEN ATP Assay System); type: cell-based, mouse; details: CSAA 1 μM
Protocol: (§4) BD™ Oxygen Biosensor System was used to measure the cellular oxygen consumption. NIH-3T3 cells were cultured overnight to log phase, then seeded in oxygen biosensor 96-well plate at the density of 20000 cells per well in DMEM medium. […] Oxygen consumptions (decrease in oxygen concentrations) were indicated by generation of fluorescent signals which were initially quenched by oxygen. Cellular ATP concentrations were measured with the ENLITEN® ATP Assay System and normalized against cell number.

NIH-3T3 cells [10] = assay: Cellular oxygen consumption (BD Oxygen Biosensor System); type: cell-based, mouse
Protocol: as §4

[11] = test system: C57/B16 mice fed with high-fat diet; assay: Insulin tolerance assay after chronic oral CSAA; type: in vivo, mouse; details: high-fat diet containing 1500 ppm CSAA for 9 weeks
Protocol: (§5) For glucose tolerance tests, mice were starved overnight and injected I.P. with 20% glucose at a dose of 2 g/kg body weight. Blood was obtained from the tail at time points 0, 15, 30, 60, 90, and 120 min for glucose measurement. For insulin tolerance tests, mice were starved for 5 h and injected I.P. with 0.75 U/kg body weight recombinant human insulin (Eli Lilly). Blood was obtained from the tail at time points 0, 15, 30, 60, 90, and 120 min for glucose measurement.

[12] = Chronic I.P. CSAA injection, high-fat diet induced body weight gain and food uptake; type: in vivo; details: daily I.P. 100 μg/mouse
From the text: as §1
The other 12 mice were injected daily with vehicle only (PBS). The body weight was measured twice a week and the net body weight gain for each mouse was determined. The average weight gain in each group over the experimental period was plotted. […] The food uptake levels were measured daily with metabolic cages from the day 15 to day 29 and the average daily food uptake of each group was calculated.

[13] = test system: C57/B16 mice fed with high-fat diet; assay: Glucose tolerance assay after chronic oral CSAA; type: in vivo, mouse; details: high-fat diet containing 1500 ppm CSAA for 9 weeks
Protocol: as §5

mitochondria = details: cited from earlier work
[14] = among the first 100,000 persons treated; cited from earlier work
[15] = high-fat diet containing 1500 ppm CSAA for 8 weeks
[16] = NIH-3T3 cells, 2 hours treatment, TMRE
[17] = stated for both mouse strains (FIG. 1)

In the case of `NCCO.O=C(Nc1ccc([N+](=O)[O-])cc1Cl)c1cc(Cl)ccc1O` [CSAA, 5-chloro-salicyl-(2-chloro-4-nitro) anilide 2-aminoethanol salt], the fasting blood glucose [1, 15] is reported as “completely prevented the increase of fasting blood glucose”, the “fasting insulin concentrations versus control group” value [1, 15] is reported as “significantly lower” and the food uptake ([1]; high-fat diet containing 1500 ppm CSAA, weeks 7 to 8) is reported as “no effect”. The “body weight and adiposity versus control mice” value ([1]; high-fat diet with oral CSAA (data not shown)) was “not different from the control mice”, the “glucose uptake rates in liver, muscles, kidney, and lungs” value (C57/B16 mice) was “significantly increased” and the “lipid load in hepatocytes” value (hepatocytes) was “dramatically reduced”. For the same compound, the “food intake rates versus mice fed normal food” value (db/db mice [2]; 1500 ppm in food) was “not significantly different”, the “body weight and adiposity versus control mice” value (db/db mice [2]; oral CSAA (data not shown)) was “not different from the control mice” and the “fasting blood glucose levels versus non-CSAA treated mice at later time” value (db/db mice [2]; oral treatment beyond two weeks (data not shown)) was “remained significantly lower”. For the same compound, the fasting blood glucose (db/db mice [2]; two week oral treatment, 1500 ppm in AIN-93M food) was “reduced the fasting blood glucose of the db/db mice to almost normal levels”, the “levels of the phosphorylated AMPK” value (AMPK [3]) was “dramatically increased” and the “earliest time at which dissipation of mitochondrial membrane potential is seen” value (NIH-3T3 cells [4]; NIH-3T3 cells, 2 μM CSAA) was 5 min. For the same compound, the “concentration at which reduction of mitochondrial membrane potential starts” value (NIH-3T3 cells [4]; [16]) was 500 nM, the “concentration for full uncoupling of mitochondria” value (NIH-3T3 cells [4]; [16]) was “around 5 micromolar” and the “concentration range at which mitochondria are uncoupled in cultured cells” value (NIH-3T3 cells [4]; cultured cells) was “high nanomolar to low micromolar range”. The “AMPK activity in liver” value (AMPK [5]) was “chronically elevated”, the “effect on blood glucose concentration (hypoglycemic activity)” value [6] was “dramatic decrease in blood glucose concentration” and the “time after treatment at which blood glucose concentrations were lowered” value (db/db mice [7]; [17]) was roughly 1 h. For the same compound, the “time until which blood glucose lowering remained effective” value (db/db mice [7]; [17]) was “about 4 hours”, the “reduction in blood glucose as compared to the control” value (db/db mice [7]; db/db mice, starved 5 hours) was 30% and the “mitochondrial oxygen consumption in the presence of oligomycin” value [8] was “still effectively promoted mitochondrial oxygen consumption”. For the same compound, the “steady-state ATP concentrations in cells” value (NIH-3T3 cells [9]) was “does not affect”, the cellular oxygen consumption (NIH-3T3 cells [10]; CSAA 1 μM) was “dramatically stimulated” and the “effect of oligomycin co-treatment on CSAA-stimulated oxygen consumption” value (NIH-3T3 cells [10]; CSAA 1 μM and oligomycin 5 μg/ml) was “did not significantly affect”. For the same compound, the “insulin sensitivity by insulin tolerance assay” value [11] was “significantly increased insulin sensitivity”, the “food uptake rate versus vehicle group” value ([12]; day 15 to day 29) was “higher food uptake rate” and the “weight gain induced by high-fat diet” value ([12]; mice aged 8 months on high-fat diet) was “reduces the weight gain”. For the same compound, the “insulin sensitivity by glucose tolerance assay” value [13] was “significantly increased insulin sensitivity”.

In the case of `O=[N+]([O-])c1ccc(O)c([N+](=O)[O-])c1` [DNP, 2,4-dinitrophenol], the “concentrations at which the mitochondrial uncoupler functions” value (mitochondria) is listed as “mini molar concentrations” and the “fatalities due to hyperthermia” value [14] is listed as “two fatalities”.
